Results reported in patent US20110224221A1, “HEMATOPOIETIC PROTECTION AGAINST IONIZING RADIATION USING SELECTIVE CYCLIN-DEPENDENT KINASE 4/6 INHIBITORS” (priority 2008, published 2011).
Entries after “also recorded” stand apart in the source; their conditions may differ.

Tests used:
[1] = system: pancreatic islet; details: same dose and schedule (150 mg/kg daily); cited from earlier work
[2] = system: human melanoma cell line WM2664; assay: Cell cycle analysis (BrdU incorporation in vitro), WM2664; assay type: cell-based; details: WM2664, 24 hours exposure
Text: FIG. 3A is a set of graphs showing the dose-response curves for cycle analysis in both cyclin-dependent kinase 4/6 (CKD4/6)-dependent cells (human telomerized human diploid fibroblasts (tHDFs, left-hand column of graphs) and a CDK4/6-dependent human melanoma cell line (WM2664, middle column of graphs)) and in CDK4/6-independent cells (a human retinoblastoma tumor suppressor protein (RB)-null melanoma cell line (A2058), right-hand column of graphs). […] The percentage of cells in the G1 phase is indicated by the data shown in the open triangles, while the percentage of cells in the S phase is shown by the data in the shaded circles and the percentage of cells in the G2/M phase is indicated by the data in the double “x”s.
FIG. 8 is a set of representative cell cycle dot-plots for cyclin-dependent kinase 4/6 (CDK4/6)-dependent (WM2664) human melanoma cells (top two rows) and CDK4/6-independent (A2058) human melanoma cells (bottom two rows) that had been treated with dimethyl sulfoxide (DMSO) as a control or with 300 nM, 1 μM, 3 μM, 10 μM or 30 μM of trans-4-[[6-ethylamino)-2-[[2-phenylmethyl)-1H-indol-5-yl]amino]-4-pyrimidinyl]amino]]-cyclohexanol (CINK4).
Cell Lines: KPTR1, KPTR4. and KPTR5 were derived from tumor-bearing TyrRAS+Ink4a/Arf−/− by standard procedures and cultured in RPMI+10% fetal bovine serum (FBS). Telomerized HDFs (tHDFs, also known as HS68) were cultured in DMEM+10% FBS with penicillin and streptomycin. The same conditions were used for A2058 and WM2664, human melanoma cell lines with known RB-pathway mutations: A2058 is RB-null, whereas WM2664 lacks p16^INK4a/Arf. See Shields, et al., Cancer Res., 67, 1502-1512 (2007). Cells were irradiated for indicated doses in a Rad Source Inc. (Alpharetta, Ga., United States of America) RS-2000 Biological Irradiator at 160 kV, 25.0 mA, at distance setting 1, with a dose rate of 103 rads/min.
BrdU Incorporation in vitro: Cells were plated and allowed to adhere overnight or at least 6 hours prior to adding CDK4/6 inhibitor at the indicated concentrations. Cells were grown for 24 hours in the presence of CDK4/6 inhibitor. 15 minutes prior to cell harvesting, 5-Bromo-2-deoxyuridine (BrdU) was added to the media at a final concentration of 10 μM. The cells were then washed, trypsinized, pelleted, fixed, permeabilized, stained, and measured on a flow cytometer as described in manufacturer directions for the BrdU Kit (BD Biosciences Pharmingen, San Diego, Calif., United States of America).
The proliferation of seven RB-deficient human small cell lung cancer lines was also resistant to the selective CDK4/6 inhibitors.

[3] = system: telomerized human diploid fibroblasts; assay: Comet tail assay after IR; assay type: cell-based; details: 24 hours treatment prior to IR, 0-8 Gy
Protocol: Telomerized human diploid fibroblasts were irradiated and then immobilized. After immobilization, cell nuclei were exposed to an electric field by gel electrophoresis, with fragmented DNA migrating further than undamaged DNA.
Comet tail assay: Cells were seeded and allowed to adhere overnight in a 6 cm culture dish. Cells were then treated for 24 hours with a CDK4/6 inihibitor or dimethyl sulfoxide (DMSO) only. After 24 hours cells were irradiated as described. Cells were then fixed and treated as described in manufacturer instructions for the COMETASSAY™ purchased from Trevigen (Gaithersburg, Md., United States of America). In summary, cells were embedded in agarose, the membranes are permeabilized, DNA is denatured in alkali solution, and the DNA is mobilized using gel electrophoresis. Images of the comet tails were obtained by fluorescent microscopy (see Microscopy) and images were analyzed using CometScore software from TriTek Corp. (Sumerduck, Va., United States of America) at either 10× or 20× magnification.

[4] = system: bone marrow cells; assay: Bone marrow cellularity, immunophenotypic frequency, apoptosis and viability; assay type: in vivo, mice; details: 48 hour treatment
Protocol: For HSPC proliferation experiments, mice received daily oral gavage with PD0332991 for 2 days with 1 mg BrdU intraperitoneal injection every 6 hours for 24 hours prior to sacrifice. BM-MNC harvest and immunophenotyping was performed using RBC lysis, biotin-conjugated Lin-panel incubation (Invitrogen Corporation, Carlsbad, Calif., United States of America), paramagnetic bead-conjugated straptavidin (Miltinyi Biotec, Bergisch Gladbach, Germany) incubation, and magnetic depletion using an AutoMACS (Miltinyi Biotec, Bergisch Gladbach, Germany). At least 2×10^6 Lin-depleted cells per mouse were incubated with fluorescently labeled antibodies against cell surface antigens used to identify hematopoietic progenitor subpopulations as previously described (see Passegue et al., J. Exp. Med., 202, 1599-1611 (2005); and Kiel et al., Cell, 121, 1109-1121 (2005): CD34-FITC, CD16/32-PacificBlue, IL7Ra-PE-Cy5, and cKit-APC-Alexa750 from eBiosciences, Inc. (San Diego, Calif., United States of America); Sca1-PE-Cy7, CD150-PE-Cy5, and CD48-PacificBlue from BioLegend (San Diego, Calif., United States of America); and Aqua Live/Dead viability dye (Invitrogen Corporation, Carlsbad, Calif., United States of America). Streptavidin-PE-TexasRed (Invitrogen Corporation, Carlsbad, Calif., United States of America) was used to confirm efficiency of lineage-depletion. After cell surface staining, cells were fixed, permeabilized, and stained with antibodies against Ki67-FITC, BrdU-APC, and caspase3-PE (BD Biosciences Pharmingen, San Diego, Calif., United States of America).
In all experiments, gating based on isotype controls was used as appropriate. Flow cytometry was performed using a CyAn ADP (Dako, Glostrup, Denmark) and analyzed with FlowJo software (Tree Star, Ashland, Oreg., United States of Ameria). For each bone marrow sample, a minimum of 200,000 cells were analyzed. For cell culture samples, a minimum of 20,000 cells were analyzed.
The effects on immunophenotypic HSPC frequency were validated by other methods.

Compound	proliferation in CDK4/6 dependent normal murine tissues such as the pancreatic islet [1]	cell cycle effect [2]	DNA damage (comet tails) after IR [3]	HSC and MPP frequencies [4]	Lin− or HSC apoptosis or viability [4]	absolute number of lineage negative cells [4]	frequency of oligopotent progenitors (Lin−cKit+Sca1−) [4]	total marrow cellularity [4]
CC(=O)c1c(C)c2cnc(Nc3ccc(N4CCNCC4)cn3)nc2n(C2CCCC2)c1=O [PD0332991, 6-acetyl-8-cyclopentyl-5-methyl-2-(5-piperazin-1-yl-pyridin-2-ylamino)-8H-pyrido-[2,3-d]-pyrimidin-7-one]	abrogated proliferation	strong, reversible G1-arrest	greatly attenuated; also recorded: potently reduce comet tail formation	relative increase; also recorded: relative enrichment	without altering	did decrease	declined	did not decrease
O=C1NC(=O)c2c1c1c3ccccc3[nH]c1c1[nH]c3cc(Br)ccc3c21 [Compound 2BrIC, 2-bromo-12,13-dihydro-5H-indolo[2,3-a]pyrrolo[3,4]-carbazole-5,6-dione]	–	strong, reversible G1-arrest	attenuated; also recorded: potently reduce comet tail formation	–	–	–	–	–
